Patent US20120142771A1, “BIPHENYLACETAMIDE DERIVATIVE” (Dainippon Sumitomo Pharma Co., Ltd., priority 2008, published 2012)
Where two headings read alike, the source gives them in different places.

How the values were obtained:
Format in all cases: in vivo, mice
[1] = system: 6 Hz psychomotor seizure model; assay: 6 Hz psychomotor seizure model; settings: for 6 Hz (Positive number/tested number): dose 100 mg/kg, 30 minutes or 1 hour after administration; for efficacy in 6 Hz psychomotor seizure model: oral administration at a dose of 100 mg/kg
Description: Test 4: Test of 6 Hz Psychomotor Seizure Model
Similar to Tests 1 and 2, Test 4 evaluates the anticonvulsant action of medicaments. However, unlike Tests 1 and 2, the animal model used herein represents clinical phenotypes of seizures resistant to existing antiepileptic drugs. […] After 30 minutes or an hour of administration, their corneas were electrically stimulated (6 Hz, 32 mA, 3 seconds) to induce symptoms of myoclonus in their forelimbs, Straub tail, and immobility. […] To the control mice, 0.5% tragacanth solution, 0.5% methylcellulose solution, or olive oil was administered.

[2] = system: maximum electroshock seizure (MES) model; assay: Maximum electroshock seizure (MES) model test; settings: for responders at 50 mg/kg / responders at 100 mg/kg: Mus musculus, po, 1 h; for responders at 50 mg/kg / responders at 100 mg/kg / MES (positive number/tested number): inhibition of hind limb extension; for anticonvulsant action in maximum electroshock seizure (MES) model test: mice, oral 50 or 100 mg/kg, 1 hour after administration
Method in brief: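 Tonic hind-limb extension was elicited by corneal electroshock (60 Hz, 25 mA, 0.2 s) 1 h after oral dosing. Test compounds were given at 50 or 100 mg/kg to groups of 3 male Slc: ddY mice (20-30 g), vehicle controls receiving 0.5% tragacanth or 0.5% methylcellulose solution.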

[3] = system: subcutaneously pentetrazol-injected model (scPTZ); assay: Subcutaneously pentetrazol-injected model (scPTZ) test; settings: pentetrazol 85 mg/kg s.c. after 1 hour; for responders at 50 mg/kg / responders at 100 mg/kg: Mus musculus, po, 1 h, read-out: scPTZ (positive number/tested number) (converted); for responders at 50 mg/kg / responders at 100 mg/kg / scPTZ (positive number/tested number): Slc: ddY male mice, 3 per group, observed 30 minutes for clonic convulsion; for anticonvulsant action in subcutaneously pentetrazol-injected model (scPTZ) test: mice, oral 50 or 100 mg/kg
Method in brief: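 Pentetrazol (85 mg/kg, s.c.) was injected one hour after oral test compound at 50 or 100 mg/kg in groups of three male Slc:ddY mice weighing 20-30 g; vehicle controls got 0.5% tragacanth or 0.5% methylcellulose.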

[4] = Mus musculus, 6 Hz psychomotor seizure model, mice, oral, read-out: ED50
[5] = 50 mg/kg oral, Slc: ddY male mice, 3 per group, electrical stimulation 1 hour after administration, read-out: MES (positive number/tested number) (converted)
[6] = 100 mg/kg oral, Slc: ddY male mice, 3 per group, electrical stimulation 1 hour after administration, read-out: MES (positive number/tested number) (converted)
[7] = 50 mg/kg oral, Slc: ddY male mice, 3 per group, electrical stimulation 1 hour after administration
[8] = 100 mg/kg oral, Slc: ddY male mice, 3 per group, electrical stimulation 1 hour after administration

SMILES	ED50 [1, 4]	6 Hz (Positive number/tested number) ([1]; mice, oral)	responders at 50 mg/kg [2, 5]	responders at 100 mg/kg [2, 6]	anticonvulsant action in maximum electroshock seizure (MES) model test [2]	responders at 50 mg/kg ([3]; 50 mg/kg oral)	responders at 100 mg/kg ([3]; 100 mg/kg oral)	anticonvulsant action in subcutaneously pentetrazol-injected model (scPTZ) test [3]	ED50 ([1]; 6 Hz psychomotor seizure model, mice, oral, read-out: ED50)	MES (positive number/tested number) [2, 7]	MES (positive number/tested number) [2, 8]	scPTZ (positive number/tested number) ([3]; 50 mg/kg oral)	scPTZ (positive number/tested number) ([3]; 100 mg/kg oral)	efficacy in 6 Hz psychomotor seizure model ([1]; mice)	ED50 ([1]; Mus musculus, po)	responders at 100 mg/kg ([2]; read-out: MES (positive number/tested number), 100 mg/kg oral, Slc: ddY male mice, 3 per group, electrical stimulation 1 hour after administration)
NC(=O)C(O)c1ccccc1-c1cccc(F)c1 (single isomer, unassigned) [Example 211, 2-(3′-Fluorobiphenyl-2-yl)-2-hydroxyacetamide]	100 mg/kg	5/10/100	100%	100%	anticonvulsant action was observed	66.7%	66.7%	anticonvulsant action was observed								
NC(=O)Cc1ccccc1-c1cc(F)cc(Cl)c1 [Example 80, 2-(3′-chloro-5′-fluorobiphenyl-2-yl)acetamide]		4/5/100	100%	100%	anticonvulsant action was observed	66.7%	100%	anticonvulsant action was observed								
NC(=O)[C@@H](O)c1ccccc1-c1ccccc1 [Example 208, 2-(biphenyl-2-yl)-2S-hydroxyacetamide]		7/10/100							90.6 mg/kg	2/3	3/3	1/3	2/3			
NC(=O)C(O)c1ccccc1-c1cc(Cl)cc(Cl)c1 (centres unmarked) [Example 183, 2-(3′,5′-dichlorobiphenyl-2-yl)-2-hydroxyacetamide]		4/5/100	100%	100%	anticonvulsant action was observed	66.7%	66.7%	anticonvulsant action was observed								
NC(=O)C(O)c1ccccc1-c1ccccc1 (centres unmarked) [Example 59, 2-(Biphenyl-2-yl)-2-hydroxyacetamide]	91.5 mg/kg	7/10/100	100%	100%		0%	66.7%									
NC(=O)C(O)c1ccccc1-c1ccccc1Cl (centres unmarked) [Example 190, 2-(2′-chlorobiphenyl-2-yl)-2-hydroxyacetamide]		5/5/100	66.7%	100%	anticonvulsant action was observed	66.7%	66.7%	anticonvulsant action was observed						potent efficacy		
NC(=O)Cc1ccccc1-c1ccc(Cl)cc1Cl [Example 78, 2-(2′,4′-dichlorobiphenyl-2-yl)acetamide]		3/5/100	100%	100%		0%	66.7%									
NC(=O)[C@H](O)c1ccccc1-c1cc(Cl)cc(Cl)c1 (single isomer, unassigned) [Example 215, 2-(3′,5′-Dichlorobiphenyl-2-yl)-2R-hydroxyacetamide]	64.8 mg/kg	7/10/100	66.7%	66.7%		0%	66.7%									
NC(=O)Cc1ccccc1-c1cccc(Cl)c1 [Example 13, 2-(3′-chlorobiphenyl-2-yl)acetamide]		2/10/100	66.7%	100%	anticonvulsant action was observed	100%	66.7%	anticonvulsant action was observed								
NC(=O)C(O)c1ccccc1-c1ccccc1F (centres unmarked) [Example 60, 2-(2′-Fluorobiphenyl-2-yl)-2-hydroxyacetamide]		1/5/100	100%	100%		33.3%	66.7%									
NC(=O)C(O)c1ccccc1-c1cccc(F)c1 (centres unmarked) [Example 178, 2-(3′-fluorobiphenyl-2-yl)-2-hydroxyacetamide]	117 mg/kg	5/10/100	66.7%	100%	anticonvulsant action was observed	100%	100%	anticonvulsant action was observed								
NC(=O)Cc1ccccc1-c1cc(Cl)cc(Cl)c1Cl [Example 64, 2-(2′,3′,5′-Trichlorobiphenyl-2-yl)acetamide]		3/5/100	100%	100%		0%	100%									
NC(=O)C(O)c1ccccc1-c1cc(F)ccc1Cl (centres unmarked) [Example 185, 2-(2′-chloro-5′-fluorobiphenyl-2-yl)-2-hydroxyacetamide]		5/5/100	66.7%	100%	anticonvulsant action was observed	66.7%	100%	anticonvulsant action was observed						potent efficacy		
NC(=O)C(F)c1ccccc1-c1ccccc1 (single isomer, unassigned) [Example 209, 2-(Biphenyl-2-yl)-2-fluoroacetamide]		6/10/100			anticonvulsant action was observed			anticonvulsant action was observed		3/3		2/3	2/3		109 mg/kg	100%
NC(=O)C(O)c1cc(F)ccc1-c1cc(Cl)cc(Cl)c1 (centres unmarked) [Example 189, 2-(3′,5′-dichloro-4-fluorobiphenyl-2-yl)-2-hydroxyacetamide]		3/5/100	100%	66.7%		33.3%	66.7%									
NC(=O)C(F)c1ccccc1-c1ccccc1 (single isomer, unassigned) [Example 210, 2-(Biphenyl-2-yl)-2-fluoroacetamide]		4/5/100			anticonvulsant action was observed			anticonvulsant action was observed		2/3	3/3	3/3	3/3			
NC(=O)Cc1ccccc1-c1ccccc1 [Example 50, 2-(biphenyl-2-yl)acetamide]		3/5/100	66.7%	100%			33.3%									
NC(=O)[C@H](O)c1ccccc1-c1ccccc1 (single isomer, unassigned) [Example 207, 2-(Biphenyl-2-yl)-2R-hydroxyacetamide]	86.6 mg/kg	7/10/100	66.7%	100%	anticonvulsant action was observed	66.7%	66.7%	anticonvulsant action was observed						potent efficacy		
